Assay results taken from patent US12370176B2, “Methods of use for KV7 channel activators” (Biohaven Therapeutics Ltd., priority 2019, dated 2025).

Assays:
[1] = target: T1, KCNQ2 homomers (Kv7.2 homomers) (Homo sapiens, UniProt O43526); test: Whole cell voltage-clamp, wildtype KCNQ2 homomers expressed in CHO cells; type: cell-based; conditions: 10.0 μM ezogabine; FIG. 11
T1 construct: expressed in transfected cells; host or cells: CHO cells
Description: Biological Assay Methods—Using lipid mediated transfection, plasmids including only wildtype (wt) KCNQ2, only wt KCNQ3, or both wt KCNQ2 and wt KCNQ3 subunits were expressed in Chinese hamster ovary (CHO) cells. Whole cell voltage-clamp protocols were used to measure gating and conductance density of wt channels before, during and after test compound application via focal pipette perfusion. The half-activating voltage (V1/2) was determined by Boltzmann fits of the conductance-voltage (G/V) curves.
Four highly recurrent KCNQ2-EE missense variants (FIG. 3), R210H (located in S4 of the voltage-sensor), T274M (located in the pore helix), A294V (located at the border of the pore loop and S6), and R581Q/L (located in the intracellular helix C), were introduced into KCNQ2 cDNA by QuikChange site-directed mutagenesis. R210H is in S4 of the voltage-sensor, T274M is in the pore helix, A294V is at the border of the pore loop and S6, and R581Q is in the intracellular helix C. Using lipid-mediated transfection, plasmids including the pathogenic variants were co-expressed with wildtype KCNQ2 or KCNQ2 and KCNQ3 subunits in Chinese hamster ovary (CHO) cells. The KCNQ2 S5 helix mutation W236L, which abolishes EZO modulation, was used to characterize Compound A binding. […]

[2] = target: T2, KCNQ2 W236L (Homo sapiens, UniProt O43526, W236L); test: Whole cell voltage-clamp, KCNQ2 W236L channels in CHO cells; type: cell-based
T2 construct: expressed in transfected cells; host or cells: CHO cells
Source text: Four highly recurrent KCNQ2-EE missense variants (FIG. 3), R210H (located in S4 of the voltage-sensor), T274M (located in the pore helix), A294V (located at the border of the pore loop and S6), and R581Q/L (located in the intracellular helix C), were introduced into KCNQ2 cDNA by QuikChange site-directed mutagenesis. R210H is in S4 of the voltage-sensor, T274M is in the pore helix, A294V is at the border of the pore loop and S6, and R581Q is in the intracellular helix C. Using lipid-mediated transfection, plasmids including the pathogenic variants were co-expressed with wildtype KCNQ2 or KCNQ2 and KCNQ3 subunits in Chinese hamster ovary (CHO) cells. The KCNQ2 S5 helix mutation W236L, which abolishes EZO modulation, was used to characterize Compound A binding. Whole cell voltage-clamp protocols were used to measure gating and conductance of wildtype channels and mutated subunit containing channels, before, during and after Compound A application via focal pipette perfusion.

With `CCOC(=O)Nc1ccc(NCc2ccc(F)cc2)cc1N` [EZO, ezogabine] the current density [1] was “increased”, the current density ([2]; W236L channels, 10.0 μM ezogabine, FIG. 14) was “did not affect” and the “dependence of KCNQ2 homomer activation on W236” value ([2]; wildtype KCNQ2 versus W236L) was “requires W236, like EZO”.
